Several values for one entry are separate records, joined by “and”; a condition that tells them apart may be missing. Equal values may be shown once.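 All cell lines were grown in 96-well plates and treated with compound for 48 hours. GI50 is the concentration that inhibits growth by half. The concentration for full growth arrest is given as TGI.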
Tests used:
Test in all cases: inhibition of tumour cell growth, NCI panel, 48 h
SK-OV-3 ovarian = tested on: SK-OV-3 ovarian
786-0 renal = tested on: 786-0 renal
SN12C renal = tested on: SN12C renal
NCI-H522 lung = tested on: NCI-H522 lung
SNB-19 CNS = tested on: SNB-19 CNS
KM12 colon = tested on: KM12 colon
SF-295 CNS = tested on: SF-295 CNS
SK-MEL-2 melanoma = tested on: SK-MEL-2 melanoma
NCI-H23 lung = tested on: NCI-H23 lung
HCT-116 colon = tested on: HCT-116 colon

| SMILES | TGI (SK-OV-3 ovarian) [µM] | TGI (786-0 renal) | TGI (SN12C renal) [µM] | TGI (NCI-H522 lung) | TGI (SNB-19 CNS) [µM] | TGI (KM12 colon) | TGI (SF-295 CNS) [µM] | TGI (SK-MEL-2 melanoma) | TGI (NCI-H23 lung) | TGI (HCT-116 colon) | GI50 (SK-OV-3 ovarian) [µM] | GI50 (786-0 renal) [µM] | GI50 (SN12C renal) [µM] | GI50 (NCI-H522 lung) [µM] | GI50 (SNB-19 CNS) [µM] | GI50 (KM12 colon) [µM] | GI50 (SF-295 CNS) [µM] | GI50 (SK-MEL-2 melanoma) [µM] | GI50 (NCI-H23 lung) [µM] | GI50 (HCT-116 colon) |
| --- | --- | --- | --- | --- | --- | --- | --- | --- | --- | --- | --- | --- | --- | --- | --- | --- | --- | --- | --- | --- |
| CC(C)(C)N/N=C(\C(=O)Nc1nc(=S)[nH][nH]1)C1C(=O)Nc2ccccc2S1=O (centres undefined) | > 100 | > 100 µM | > 100 | > 100 µM | > 100 | > 100 µM | > 100 | > 100 µM | > 100 µM | > 100 µM | – | – | – | – | – | – | – | – | – | – |
| CCOC(=O)C(Cc1ccccc1)NC(=O)c1[nH]cnc1/N=N/N(C)C (centres undefined) | > 100 | > 100 µM | > 100 | > 100 µM | > 100 | > 100 µM | > 100 | > 100 µM | > 100 µM | > 100 µM | – | – | – | – | – | – | – | – | – | – |
| CCC1(OC(=O)CN)C(=O)OCc2c1cc1n(c2=O)Cc2cc3ccccc3nc2-1 (centres undefined) | > 54.3 | 0.194 µM and 0.161 µM | 0.64 | 0.59 µM and 0.624 µM | 4.91 | 0.754 µM and 4.01 µM | – | 0.932 µM and 0.407 µM | 0.15 µM and 0.0424 µM | 0.265 µM and 0.431 µM | 0.0224 | 0.00563 | 0.00715 | 0.0362 | 0.0128 | 0.022 | 0.00249 | 0.492 | 0.0191 | 0.0519 µM and 0.0222 µM |
| COc1cc(OC)c(OC)cc1/C=C/c1cnnc2ccccc12 | > 10 | > 10 µM | > 10 | > 10 µM | > 10 | > 10 µM | > 10 | > 10 µM | > 10 µM | > 10 µM | – | – | – | – | – | – | – | – | – | – |
| O=CN1N=C(c2cccc(Nc3ccnc4cc(Cl)ccc34)c2)CC1c1ccccc1 (centres undefined) | 14.3 | 18 µM | > 54.3 | 0.633 µM | > 100 | 12.7 µM | 1.66 | 0.825 µM | > 36.8 µM | 1.63 µM | 0.363 | 0.543 | 0.617 | 0.185 | 0.585 | 0.315 | 0.306 | 0.258 | 0.551 | 0.364 µM |
| C[C@H]1COCCN1c1cc(C2(S(=O)(=O)C3CC3)CC2)nc(-c2ccc(NC(=S)NCCO)cc2)n1 | 0.0556 | 3.49 µM | 61.2 | 64.8 µM | 11.5 | > 100 µM | 0.228 | 0.517 µM | 30.6 µM | 21.4 µM | < 0.01 | 0.0382 | 0.0263 | 0.0215 | 0.061 | 0.0494 | 0.0194 | 0.0289 | 0.036 | 0.0985 µM |
| O=c1oc2cc(OC/C(=N/O)c3ccc(F)cc3)ccc2c2ccccc12 | 41.3 | 25 µM | 37.3 | 37 µM | 46.3 | 53.5 µM | 41.5 | 40 µM | 34.2 µM | 29.2 µM | 24 | 11.7 | 20.1 | 17.5 | 21.8 | 21.2 | 18.4 | 21.3 | 19.1 | 15.8 µM |
| Cn1c(-c2ccccc2)c(/C=C/C2=[N+](C)c3ccccc3C2(C)C)c2ccccc21 | 8.03 | 9.02 µM | 12.8 | 3.78 µM | 15.5 | 1.94 µM | 3.73 | 4.19 µM | 5.17 µM | 7.11 µM | 2.38 | 2.18 | 1.7 | 0.863 | 0.571 | 0.429 | 0.775 | 1.13 | 0.784 | 0.593 µM |
| COc1cc(NS(C)(=O)=O)ccc1NCc1c2ccccc2nc2ccccc12 | > 100 | > 100 µM | > 100 | 77.3 µM | > 100 | > 100 µM | > 100 | > 100 µM | > 100 µM | 36.6 µM | – | – | – | – | – | – | – | – | – | – |
| Cn1nc(C(F)(F)F)c(-c2cc(C(F)(F)F)cc(C(F)(F)F)c2)c1-c1ccc(OCc2ccc(Cl)cc2)cc1O | 10.1 | 3.28 µM | 10.3 | 9.16 µM | 14.8 | 10.7 µM | 7.3 | 4.09 µM | 6.93 µM | 3.81 µM | 2.82 | 1.63 | 1.96 | 1.94 | 2.78 | 2.64 | 2.31 | 1.73 | 1.64 | 1.62 µM |
| COc1ccc(NC(=O)c2sc3nc(C)c(C(=O)/C=C/c4cccc(OC)c4)cc3c2N)cc1 | 46 | 1.85 µM | 4.47 | 5.41 µM | 6.73 | 5.06 µM | > 50 | 18 µM | 18.6 µM | 1.7 µM | 6.71 | 0.856 | 1.43 | 1.38 | 1.72 | 1.45 | 3.28 | 1.54 | 2.35 | 0.773 µM |
| COc1ccc(/C=C2\SC(=Nc3ccccc3)NC2=O)cc1 | 46.8 | 30.1 µM | > 100 | 24.9 µM | 83.7 | 22 µM | > 100 | 82.4 µM | 80.5 µM | 12.9 µM | 12.6 | 8.25 | 9.1 | 4.54 | 6.34 | 4.37 | 4.6 | 29.3 | 8.6 | 3.4 µM |
| CC1=NOC(=O)/C1=C/c1ccc([N+](=O)[O-])cc1 | > 100 | > 100 µM | > 100 | > 100 µM | > 100 | > 100 µM | > 100 | > 100 µM | > 100 µM | > 100 µM | – | – | – | – | – | – | – | – | – | – |
| O=S(=O)(N=NC=C1c2ccccc2N(O)c2ccccc21)c1ccc(Cl)cc1 | > 100 | > 100 µM | > 100 | > 100 µM | > 100 | > 100 µM | > 100 | > 100 µM | > 100 µM | > 100 µM | – | – | – | – | – | – | – | – | – | – |
| CCOc1ccc(NCC2CC/C(=C\c3ccccc3OC)C2=O)cc1 (centres undefined) | 31.1 | 8.3 µM | 19.4 | 4.36 µM | 30 | 9.1 µM | 32.3 | 35.2 µM | 34.7 µM | 14.5 µM | – | – | – | – | – | – | – | – | – | – |
